Laboratory results published in ChEMBL document CHEMBL5120927, “LEGO-Lipophosphonoxins: A Novel Approach in Designing Membrane Targeting Antimicrobials” (J Med Chem, 2022).
≈ marks a conversion by molar mass, not a printed value.

Assays:
[1] = system: Staphylococcus aureus; experiment: Antibacterial activity against wild type Staphylococcus aureus 4740/B assessed as reduction in microbial growth incubated for 24 hrs by microdilution assay; format: functional
[2] = system: Staphylococcus aureus; experiment: Antibacterial activity against wild type Staphylococcus aureus 4788/B assessed as reduction in microbial growth incubated for 24 hrs by microdilution assay; format: functional
[3] = system: Staphylococcus aureus; experiment: Antibacterial activity against wild type methicillin resistant Staphylococcus aureus 4968/C assessed as reduction in microbial growth incubated for 24 hrs by microdilution assay; format: functional
[4] = system: Staphylococcus aureus; experiment: Antibacterial activity against wild type Staphylococcus aureus 4717/B assessed as reduction in microbial growth incubated for 24 hrs by microdilution assay; format: functional
[5] = system: Staphylococcus aureus; experiment: Antibacterial activity against […] Staphylococcus aureus 4463/A assessed as reduction in microbial growth incubated for 24 hrs by microdilution assay; format: functional
[6] = system: Staphylococcus aureus; experiment: Antibacterial activity against wild type Staphylococcus aureus 4482/A assessed as reduction in microbial growth incubated for 24 hrs by microdilution assay; format: functional
[7] = system: Staphylococcus aureus; experiment: Antibacterial activity against wild type Staphylococcus aureus 4679/B assessed as reduction in microbial growth incubated for 24 hrs by microdilution assay; format: functional
[8] = system: Staphylococcus aureus; experiment: Antibacterial activity against wild type methicillin resistant Staphylococcus aureus 4561/A assessed as reduction in microbial growth incubated for 24 hrs by microdilution assay; format: functional
[9] = system: Staphylococcus aureus; experiment: Antibacterial activity against wild type Staphylococcus aureus 78/CF assessed as reduction in microbial growth incubated for 24 hrs by microdilution assay; format: functional
[10] = system: Staphylococcus aureus; experiment: Antibacterial activity against wild type Staphylococcus aureus 4504/A assessed as reduction in microbial growth incubated for 24 hrs by microdilution assay; format: functional
[11] = system: Staphylococcus aureus; experiment: Antibacterial activity against wild type Staphylococcus aureus 4566/A assessed as reduction in microbial growth incubated for 24 hrs by microdilution assay; format: functional
[12] = system: Staphylococcus aureus; experiment: Antibacterial activity against wild type Staphylococcus aureus 77/CF assessed as reduction in microbial growth incubated for 24 hrs by microdilution assay; format: functional
[13] = system: Staphylococcus aureus; experiment: Antibacterial activity against wild type Staphylococcus aureus 4557/A assessed as reduction in microbial growth incubated for 24 hrs by microdilution assay; format: functional
[14] = system: Staphylococcus aureus; experiment: microbe, parasite or virus in culture; settings: 4862/C, 24 h
Description: Antibacterial activity against wild type Staphylococcus aureus 4862/C assessed as reduction in microbial growth incubated for 24 hrs by microdilution assay

[15] = system: Staphylococcus aureus; experiment: Antibacterial activity against wild type Staphylococcus aureus 4738/B assessed as reduction in microbial growth incubated for 24 hrs by microdilution assay; format: functional
[16] = system: Staphylococcus aureus; experiment: Antibacterial activity against wild type Staphylococcus aureus 4515/A assessed as reduction in microbial growth incubated for 24 hrs by microdilution assay; format: functional
[17] = system: Staphylococcus aureus; experiment: Antibacterial activity against […] Staphylococcus aureus 4461/A assessed as reduction in microbial growth incubated for 24 hrs by microdilution assay; format: functional
[18] = system: Staphylococcus aureus; experiment: Antibacterial activity against wild type methicillin resistant Staphylococcus aureus 5017/C assessed as reduction in microbial growth incubated for 24 hrs by microdilution assay; format: functional
[19] = system: Staphylococcus aureus; experiment: Antibacterial activity against […] Staphylococcus aureus 4460/A assessed as reduction in microbial growth incubated for 24 hrs by microdilution assay; format: functional
[20] = system: Staphylococcus aureus; experiment: microbe, parasite or virus in culture; settings: 4880/C, 24 h
Description: Antibacterial activity against wild type Staphylococcus aureus 4880/C assessed as reduction in microbial growth incubated for 24 hrs by microdilution assay

[21] = system: Staphylococcus aureus; experiment: Antibacterial activity against wild type Staphylococcus aureus 5079/C assessed as reduction in microbial growth incubated for 24 hrs by microdilution assay; format: functional
[22] = system: Staphylococcus aureus; experiment: Antibacterial activity against wild type Staphylococcus aureus 4904/C assessed as reduction in microbial growth incubated for 24 hrs by microdilution assay; format: functional
[23] = system: Staphylococcus aureus; experiment: Antibacterial activity against wild type Staphylococcus aureus 4883/C assessed as reduction in microbial growth incubated for 24 hrs by microdilution assay; format: functional
[24] = system: Staphylococcus aureus; experiment: Antibacterial activity against wild type Staphylococcus aureus 4502/A assessed as reduction in microbial growth incubated for 24 hrs by microdilution assay; format: functional
[25] = system: Staphylococcus aureus; experiment: microbe, parasite or virus in culture; settings: 5017/C, 24 h
Description: Antibacterial activity against wild type Staphylococcus aureus 5017/C assessed as reduction in microbial growth incubated for 24 hrs by microdilution assay

[26] = system: Staphylococcus aureus; experiment: Antibacterial activity against wild type Staphylococcus aureus 4561/A assessed as reduction in microbial growth incubated for 24 hrs by microdilution assay; format: functional
[27] = system: Staphylococcus aureus; experiment: Antibacterial activity against wild type Staphylococcus aureus 4968/C assessed as reduction in microbial growth incubated for 24 hrs by microdilution assay; format: functional
[28] = system: Staphylococcus aureus; experiment: Antibacterial activity against antibiotic resistant Staphylococcus aureus 77/CF assessed as reduction in microbial growth incubated for 24 hrs by microdilution assay; format: functional
[29] = system: Staphylococcus aureus; experiment: Antibacterial activity against methicillin resistant Staphylococcus aureus 4591/A assessed as reduction in microbial growth incubated for 24 hrs by microdilution assay; format: functional
[30] = system: Staphylococcus epidermidis; experiment: Antibacterial activity against Staphylococcus epidermidis CCM 7221 assessed as inhibition of bacterial growth incubated for 24 hrs by microdilution assay; format: functional
[31] = system: Pseudomonas aeruginosa; experiment: Antibacterial activity against multidrug-resistant Pseudomonas aeruginosa assessed as reduction in microbial growth incubated for 24 hrs by microdilution assay; format: functional
[32] = system: Staphylococcus aureus; experiment: Antibacterial activity against Staphylococcus aureus ATCC 29213 = CCM 4223 assessed as inhibition of bacterial growth incubated for 24 hrs by microdilution assay; format: functional
[33] = system: Staphylococcus aureus; experiment: Antibacterial activity against Staphylococcus aureus ATCC 29213 = CCM 4223 assessed as inhibition of bacterial growth incubated for 24 hrs in presence of BSA by microdilution assay; format: functional
[34] = system: Escherichia coli; experiment: Antibacterial activity against Escherichia coli ATCC 25922 = CCM 3954 assessed as inhibition of bacterial growth incubated for 24 hrs in presence of BSA by microdilution assay; format: functional
[35] = system: Enterococcus faecium; experiment: Antibacterial activity against vancomycin resistant Enterococcus faecium 419/ANA assessed as reduction in microbial growth incubated for 24 hrs by microdilution assay; format: functional
[36] = Hemolytic activity in human RBC assessed as haemoglobin release measured after 3 hr; format: toxicity, cell-based, Erythrocyte; settings: red blood cells (erythrocytes)
[37] = system: Pseudomonas aeruginosa; experiment: Antibacterial activity against Pseudomonas aeruginosa ATCC 27853 = CCM 3955 assessed as inhibition of bacterial growth incubated for 24 hrs by microdilution assay; format: functional
[38] = system: Escherichia coli; experiment: Antibacterial activity against multidrug-resistant Escherichia coli CE5556 expressing CTX-M-15 assessed as reduction in microbial growth incubated for 24 hrs by microdilution assay; format: functional
[39] = Gradient chromatographic hydrophobicity index of the compound at pH 3.7 by HPLC analysis; format: ADME
[40] = system: Escherichia coli; experiment: Antibacterial activity against Escherichia coli ATCC 25922 = CCM 3954 assessed as inhibition of bacterial growth incubated for 24 hrs by microdilution assay; format: functional
[41] = system: Enterococcus faecalis; experiment: Antibacterial activity against Enterococcus faecalis ATCC 29212 = CCM 4224 assessed as inhibition of bacterial growth incubated for 24 hrs by microdilution assay; format: functional

SMILES	MIC [1] [µg/mL]	MIC [2] [µg/mL]	MIC [4] [µg/mL]	MIC [5] [µg/mL]	MIC [6] [µg/mL]	MIC [7] [µg/mL]	MIC [9] [µg/mL]	MIC [10] [µg/mL]	MIC [11] [µg/mL]	MIC [12] [µg/mL]	MIC [13] [µg/mL]	MIC [14] [µg/mL]	MIC [15] [µg/mL]	MIC [16] [µg/mL]	MIC [17] [µg/mL]	MIC [19] [µg/mL]	MIC [20] [µg/mL]	MIC [21] [µg/mL]	MIC [22] [µg/mL]	MIC [23] [µg/mL]	further results
Cc1onc(-c2ccccc2)c1C(=O)N[C@@H]1C(=O)N2[C@@H]1SC(C)(C)[C@@H]2C(=O)O [OXACILLIN]	0.25	0.125	0.25	0.25	0.25	0.25	0.25	0.25	0.25	0.25	0.25	0.25 (≈ 0.623 µM)	0.25	0.25	0.25	0.25	0.25 (≈ 0.623 µM)	0.25	0.25	0.25	MIC [3]: > 16 µg/mL; MIC [8]: > 8 µg/mL; MIC [18]: > 16 µg/mL; MIC [24]: 0.25 µg/mL
O=C(O)c1cn(C2CC2)c2cc(N3CCNCC3)c(F)cc2c1=O [CIPROFLOXACIN]	0.5	0.063	0.25	0.25	–	0.25	0.25	0.25	0.25	0.5	0.25	0.25 (≈ 0.754 µM)	0.25	–	0.25	–	0.25 (≈ 0.754 µM)	0.25	0.25	0.25	MIC [3]: > 8 µg/mL; MIC [8]: > 8 µg/mL; MIC [18]: > 8 µg/mL
O=C(N[C@H](CO)[C@H](O)c1ccc([N+](=O)[O-])cc1)C(Cl)Cl [CHLORAMPHENICOL]	1	2	4	2	2	4	1	4	4	1	2	4 (≈ 12.4 µM)	4	2	2	2	2 (≈ 6.19 µM)	2	2	4	MIC [25]: 4 µg/mL (≈ 12.4 µM); MIC [26]: 4 µg/mL; MIC [24]: 2 µg/mL; MIC [27]: 4 µg/mL
CC1(C)S[C@@H]2[C@H](NC(=O)[C@H](N)c3ccccc3)C(=O)N2[C@H]1C(=O)O [AMPICILLIN]	0.5	0.5	0.5	0.5	1	1	0.5	0.5	0.5	0.5	0.5	1 (≈ 2.86 µM)	0.5	0.5	1	1	0.5 (≈ 1.43 µM)	0.5	0.5	0.5	MIC [18]: > 16 µg/mL; MIC [24]: 0.5 µg/mL
CCC[C@@H]1C[C@@H](C(=O)N[C@@H]([C@H]2O[C@H](SC)[C@H](O)[C@@H](O)[C@H]2O)[C@H](C)Cl)N(C)C1 [CLINDAMYCIN]	0.125	0.063	0.125	0.125	0.125	0.125	0.063	0.125	0.125	–	0.125	0.125 (≈ 0.294 µM)	0.125	0.125	0.125	0.125	0.25 (≈ 0.588 µM)	0.063	0.125	0.125	MIC [3]: > 8 µg/mL; MIC [28]: > 8 µg/mL; MIC [8]: > 4 µg/mL; MIC [18]: > 8 µg/mL; MIC [24]: 0.063 µg/mL
CCCCCCOP(=O)(CCN(CCCNC(=N)N)CCCNC(=N)N)OCCCCCCCCOP(=O)(CCN(CCCNC(=N)N)CCCNC(=N)N)OCCCCCC.Cl.Cl.Cl.Cl.Cl.Cl (stereo unspecified)	0.5	0.5	0.25	0.5	0.5	0.5	0.5	0.25	0.5	0.5	0.5	0.5	0.5	0.5	0.5	0.5	0.5	0.5	0.5	0.5	MIC [25]: 0.5 µg/mL; MIC [29]: 5 µg/mL; MIC [30]: 0.5 µg/mL; MIC [31]: 8 µg/mL; MIC [32]: 5 µg/mL; MIC [33]: 0.5 µg/mL; MIC [34]: 2 µg/mL; MIC [35]: 16 µg/mL; HC50 at 3 h [36]: 139 µg/mL; MIC [37]: 8 µg/mL; MIC [38]: 5 µg/mL; MIC [26]: 0.5 µg/mL; CHI [39]: 31.5; MIC [40]: 16 µg/mL; MIC [24]: 0.5 µg/mL; MIC [41]: 8 µg/mL; MIC [27]: 0.5 µg/mL
